Experimental data taken from patent publication US10584154B2, “Vesicles comprising lectins expressed on the surface and methods of use thereof to deliver an agent to autophagic and apoptotic cells” (TZU CHI UNIVERSITY, priority 2017, dated 2020).

Legend:
[1] = tested on: apoptotic cells (mouse B16-F10 cells suspended for 4 hours); assay: Blocking of liposomes targeting to apoptotic cells (flow cytometry); format: cell-based; details: M6PR+P-selectin, M6PR+PSGL-1 groups
Method: (§1) The mouse B16-F10 cells were suspended for 4 hours to induce autophagy and apoptosis. The autophagy and apoptosis cell were labeled with green fluorescent dyes (GFDs), using Cyto-ID autophagy detection kit (Enzo Life Sciences) (see FIG. 1 and FIG. 3) and CaspGLOW™ Red Active Caspase-3 Staining Kit (BioVision) (see FIG. 2 and FIG. 4) kits, respectively. The autophagy and apoptosis cell containing populations were engaged with various protein conjugated liposomes, which were labeled with fluorescent dye calcein-red (CR). The percentage of B16-F10-liposome engaged populations (GFD and CR double positive populations) were determined using flow cytometry. The levels of liposomes and fluorescent beads engaged with none conjugated cells (the “unconjugated” groups) were normalized to 100% (see FIG. 1 and FIG. 2).
(§2) The mouse B16-F10 cells were suspended for 4 hours and then treated with blocking antibody or soluble M6PR recombinant protein plus additional M6PR+P-selectin-conjugated liposomes. The autophagy and apoptosis cell were labeled with green fluorescent dyes (GFDs), using Cyto-ID autophagy detection kit (Enzo Life Sciences) and CaspGLOW™ Red Active Caspase-3 Staining Kit (BioVision) kits, respectively. […] The percentage of B16-F10-liposome engaged populations (GFD and CR double positive populations) were determined using flow cytometry. […]

[2] = tested on: autophagy cells (mouse B16-F10 cells suspended for 4 hours); assay: Blocking of liposomes targeting to autophagy cells (flow cytometry); format: cell-based; details: M6PR+P-selectin, M6PR+PSGL-1 groups
Method: as §1, §2

In the case of sialyl-lewis x oligosaccharide, the “antidote: blocking of P-selectin, E-selectin and PSGL-1-conjugated liposomes targeting to apoptotic cells” value [1] is reported as “able to serve as the antidotes” and the “antidote: blocking of P-selectin, E-selectin and PSGL-1-conjugated liposomes targeting to autophagy cells” value [2] is reported as “able to serve as the antidotes”.
